Experimental findings from publication PMC3946725 (Archives of toxicology, 2013) are described below.

In this data set the target is hERG cardiac potassium channel (Kv11.1) (Homo sapiens, UniProt Q12809). It counts as cell-based. To be noted: hamster, cho cells.
Sequence of hERG cardiac potassium channel (Kv11.1) (Q12809 whole entry): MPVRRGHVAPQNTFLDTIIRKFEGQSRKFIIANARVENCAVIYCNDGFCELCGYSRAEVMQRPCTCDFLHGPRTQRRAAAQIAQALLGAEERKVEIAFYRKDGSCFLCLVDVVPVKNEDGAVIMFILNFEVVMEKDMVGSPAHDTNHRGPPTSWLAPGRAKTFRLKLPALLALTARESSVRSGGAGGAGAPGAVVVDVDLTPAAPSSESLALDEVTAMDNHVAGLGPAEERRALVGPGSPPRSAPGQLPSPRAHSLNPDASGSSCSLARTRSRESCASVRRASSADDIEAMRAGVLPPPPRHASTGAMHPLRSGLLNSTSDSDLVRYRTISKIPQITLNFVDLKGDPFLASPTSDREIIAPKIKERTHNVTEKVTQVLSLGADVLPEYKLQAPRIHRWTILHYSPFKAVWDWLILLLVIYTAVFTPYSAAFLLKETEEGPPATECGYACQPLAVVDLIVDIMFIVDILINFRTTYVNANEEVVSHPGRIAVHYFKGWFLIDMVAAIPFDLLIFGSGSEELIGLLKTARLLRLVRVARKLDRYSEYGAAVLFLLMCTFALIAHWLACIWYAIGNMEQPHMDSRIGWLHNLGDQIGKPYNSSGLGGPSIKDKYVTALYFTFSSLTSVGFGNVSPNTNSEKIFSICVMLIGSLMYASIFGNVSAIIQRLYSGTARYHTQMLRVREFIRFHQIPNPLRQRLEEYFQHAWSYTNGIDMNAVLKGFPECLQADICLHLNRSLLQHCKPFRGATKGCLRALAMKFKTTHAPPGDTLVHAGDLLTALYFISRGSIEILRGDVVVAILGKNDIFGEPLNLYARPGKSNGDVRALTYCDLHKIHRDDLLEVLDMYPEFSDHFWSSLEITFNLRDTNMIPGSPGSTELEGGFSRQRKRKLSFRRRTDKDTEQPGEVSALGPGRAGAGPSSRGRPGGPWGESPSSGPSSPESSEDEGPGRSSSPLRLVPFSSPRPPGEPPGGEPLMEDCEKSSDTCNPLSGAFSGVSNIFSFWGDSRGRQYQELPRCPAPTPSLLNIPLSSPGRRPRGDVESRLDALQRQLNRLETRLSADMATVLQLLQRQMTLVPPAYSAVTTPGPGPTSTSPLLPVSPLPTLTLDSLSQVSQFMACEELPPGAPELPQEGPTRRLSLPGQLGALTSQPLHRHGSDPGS

For the substance AZA-2, half-maximal inhibition (IC50) required 2200 nM.

As a reminder, the IC50 is the point on the concentration scale where inhibition reaches its midpoint. Higher therefore signals a need for much substance.
